Laboratory results reported in PMC10461229 (Journal of Medicinal Chemistry, 2023).
Read-outs that look alike come from different tables or passages of the source.

Test system: wild-type (WT) Mtb Erdman
Assay: microbe, parasite or virus in culture
Format: cell-based, Mycobacterium tuberculosis
Conditions: read-out: MABA mean IC50 ± SD
[1] = Mycobacterium tuberculosis, ERDMAN

| Structure (SMILES) | IC50 [1] | IC50 |
| --- | --- | --- |
| O=C(O)C1CSc2c(C3CC3)c(CSc3nnc(-c4ccncc4)o3)cc(=O)n21 (racemic) [Compound 8i, (±) 8-Cyclopropyl-5-oxo-7-(((5-(pyridin-4-yl)-1,3,4-oxadiazol-2-yl)thio)methyl)-2,3-dihydro-5H-thiazolo[3,2-a]pyridine-3-carboxylic Acid] | > 25 µM |  |
| O=C(O)C1CSc2c(C3CC3)c(-c3cc(-c4cccc(C(F)(F)F)c4)no3)cc(=O)n21 (racemic) [Compound 17b, (±) 8-Cyclopropyl-5-oxo-7-(3-(3-(trifluoromethyl)phenyl)isoxazol-5-yl)-2,3-dihydro-5H-thiazolo[3,2-a]pyridine-3-carboxylic Acid] | 3.04 ± 0.58 µM |  |
| COc1ccc(-c2cc(-c3cc(=O)n4c(c3C3CC3)SCC4C(=O)O)on2)cc1 (racemic) [Compound 17e, (±) 8-Cyclopropyl-7-(3-(4-methoxyphenyl)isoxazol-5-yl)-5-oxo-2,3-dihydro-5H-thiazolo[3,2-a]pyridine-3-carboxylic Acid] | 2.62 ± 0.28 µM |  |
| O=C(O)C1CSc2c(C3CC3)c(-c3nc4ccccc4o3)cc(=O)n21 (racemic) [Compound 13, (±) 7-(Benzo[d]oxazol-2-yl)-8-cyclopropyl-5-oxo-2,3-dihydro-5H-thiazolo[3,2-a]pyridine-3-carboxylic Acid] | > 25 µM |  |
| O=C(O)C1CSc2c(C3CC3)c(-c3cc(-c4ccc(F)c5ccccc45)no3)cc(=O)n21 (racemic) [Compound 17m, (±) 8-Cyclopropyl-7-(3-(4-fluoronaphthalen-1-yl)isoxazol-5-yl)-5-oxo-2,3-dihydro-5H-thiazolo[3,2-a]pyridine-3-carboxylic Acid] | 4 ± 0.67 µM |  |
| O=C(O)C1CSc2c(C3CC3)c(CSc3nnc(-c4cccs4)o3)cc(=O)n21 (racemic) [Compound 8j, (±) 8-Cyclopropyl-5-oxo-7-(((5-(thiophen-2-yl)-1,3,4-oxadiazol-2-yl)thio)methyl)-2,3-dihydro-5H-thiazolo[3,2-a]pyridine-3-carboxylic Acid] | > 25 µM |  |
| O=C(O)C1CSc2c(C3CC3)c(CSc3nnc(COc4ccc(F)cc4)o3)cc(=O)n21 (racemic) [Compound 8l, (±) 8-Cyclopropyl-7-(((5-((4-fluorophenoxy)methyl)-1,3,4-oxadiazol-2-yl)thio)methyl)-5-oxo-2,3-dihydro-5H-thiazolo[3,2-a]pyridine-3-carboxylic Acid] | > 25 µM |  |
| O=C(O)C1CSc2c(C3CC3)c(-c3cc(-c4ccc([N+](=O)[O-])cc4)no3)cc(=O)n21 (racemic) [Compound 17f, (±) 8-Cyclopropyl-7-(3-(4-nitrophenyl)isoxazol-5-yl)-5-oxo-2,3-dihydro-5H-thiazolo[3,2-a]pyridine-3-carboxylic Acid] | 9.27 ± 0.62 µM |  |
| O=C(O)C1CSc2c(C3CC3)c(-c3cc(C4CCCCC4)no3)cc(=O)n21 (racemic) [Compound 17d, (±) 7-(3-Cyclohexylisoxazol-5-yl)-8-cyclopropyl-5-oxo-2,3-dihydro-5H-thiazolo[3,2-a]pyridine-3-carboxylic Acid] | > 25 µM |  |
| O=C(O)C1CSc2c(C3CC3)c(CSc3nnc(-c4ccc5ccccc5c4)o3)cc(=O)n21 (racemic) [Compound 8d, (±) 8-Cyclopropyl-7-(((5-(naphthalen-2-yl)-1,3,4-oxadiazol-2-yl)thio)methyl)-5-oxo-2,3-dihydro-5H-thiazolo[3,2-a]pyridine-3-carboxylic Acid] | 3.5 µM | 3.53 ± 1.9 µM |
| O=C(O)C1CSc2c(C3CC3)c(CSc3nnc(-c4ccco4)o3)cc(=O)n21 (racemic) [Compound 8k, (±) 8-Cyclopropyl-7-(((5-(furan-2-yl)-1,3,4-oxadiazol-2-yl)thio)methyl)-5-oxo-2,3-dihydro-5H-thiazolo[3,2-a]pyridine-3-carboxylic Acid] | > 25 µM |  |
| O=C(O)C1CSc2c(C3CC3)c(-c3cc(-c4cccc5ccccc45)no3)cc(=O)n21 (racemic) [Compound 17a, (±) 8-Cyclopropyl-7-(3-(naphthalen-1-yl)isoxazol-5-yl)-5-oxo-2,3-dihydro-5H-thiazolo[3,2-a]pyridine-3-carboxylic Acid] | 1.86 ± 1.13 µM |  |
| O=C(O)C1CSc2c(C3CC3)c(CSc3nnc(-c4ccc([N+](=O)[O-])cc4)o3)cc(=O)n21 (racemic) [Compound 8g, (±) 8-Cyclopropyl-7-(((5-(4-nitrophenyl)-1,3,4-oxadiazol-2-yl)thio)methyl)-5-oxo-2,3-dihydro-5H-thiazolo[3,2-a]pyridine-3-carboxylic Acid] | > 25 µM |  |
| COc1cccc(-c2nnc(SCc3cc(=O)n4c(c3C3CC3)SCC4C(=O)O)o2)c1 (racemic) [Compound 8h, (±) 8-Cyclopropyl-7-(((5-(3-methoxyphenyl)-1,3,4-oxadiazol-2-yl)thio)methyl)-5-oxo-2,3-dihydro-5H-thiazolo[3,2-a]pyridine-3-carboxylic Acid] | > 25 µM |  |
| O=C(O)C1CSc2c(C3CC3)c(-c3nc4ccccc4[nH]3)cc(=O)n21 (racemic) [Compound 10, (±) 7-(1H-benzo[d]imidazole-2-yl)-8-cyclopropyl-5-oxo-2,3-dihydro-5H-thiazolo[3,2-a]pyridine-3-carboxylic Acid] | > 25 µM |  |
| O=C(O)C1CSc2c(C3CC3)c(CSc3nnc(Cc4ccc5ccccc5c4)o3)cc(=O)n21 (racemic) [Compound 8e, (±) 8-Cyclopropyl-7-(((5-(naphthalen-2-ylmethyl)-1,3,4-oxadiazol-2-yl)thio)methyl)-5-oxo-2,3-dihydro-5H-thiazolo[3,2-a]pyridine-3-carboxylic Acid] | > 25 µM |  |
| O=C(O)C1CSc2c(C3CC3)c(CSc3nnc(-c4cccc5ccccc45)o3)cc(=O)n21 (racemic) [Compound 8a, (±) 8-Cyclopropyl-7-(((5-(naphthalen-1-yl)-1,3,4-oxadiazol-2-yl)thio)methyl)-5-oxo-2,3-dihydro-5H-thiazolo[3,2-a]pyridine-3-carboxylic Acid] | 12.6 ± 2.16 µM |  |
| O=C(O)C1CSc2c(C3CC3)c(-c3cc(C4CC4)no3)cc(=O)n21 (racemic) [Compound 17c, (±) 8-Cyclopropyl-7-(3-cyclopropylisoxazol-5-yl)-5-oxo-2,3-dihydro-5H-thiazolo[3,2-a]pyridine-3-carboxylic Acid] | > 25 µM |  |
| O=C(O)C1CSc2c(C3CC3)c(-c3cc(-c4c5ccccc5cc5ccccc45)no3)cc(=O)n21 (racemic) [Compound 17i, (±) 7-(3-(Anthracen-9-yl)isoxazol-5-yl)-8-cyclopropyl-5-oxo-2,3-dihydro-5H-thiazolo[3,2-a]pyridine-3-carboxylic Acid] | 1.56 ± 0.31 µM |  |
| O=C(O)C1CSc2c(C3CC3)c(-c3cc(-c4cccs4)no3)cc(=O)n21 (racemic) [Compound 17n, (±) 8-Cyclopropyl-5-oxo-7-(3-(thiophen-2-yl)isoxazol-5-yl)-2,3-dihydro-5H-thiazolo[3,2-a]pyridine-3-carboxylic Acid] | > 25 µM |  |
| O=C(O)C1CSc2c(C3CC3)c(-c3cn(-c4cccc5ccccc45)nn3)cc(=O)n21 (racemic) [Compound 15a, (±) 8-Cyclopropyl-7-(1-(naphthalen-1-yl)-1H-1,2,3-triazol-4-yl)-5-oxo-2,3-dihydro-5H-thiazolo[3,2-a]pyridine-3-carboxylic Acid] | > 25 µM |  |
| O=C(O)C1CSc2c(C3CC3)c(-c3cc(-c4cc(F)cc(F)c4)no3)cc(=O)n21 (racemic) [Compound 17l, (±) 8-Cyclopropyl-7-(3-(3,5-difluorophenyl)isoxazol-5-yl)-5-oxo-2,3-dihydro-5H-thiazolo[3,2-a]pyridine-3-carboxylic Acid] | 23.6 ± 1.51 µM |  |
| O=C(O)C1CSc2c(C3CC3)c(-c3cc(-c4ccc5c(c4)OCO5)no3)cc(=O)n21 (racemic) [Compound 17o, (±) 7-(3-(Benzo[d][1,3]dioxol-5-yl)isoxazol-5-yl)-8-cyclopropyl-5-oxo-2,3-dihydro-5H-thiazolo[3,2-a]pyridine-3-carboxylic Acid] | 2.02 ± 0.46 µM |  |
| O=C(O)C1CSc2c(C3CC3)c(-c3cc(-c4cccc(C(F)(F)F)c4)on3)cc(=O)n21 (racemic) [Compound 19b, (±) 8-Cyclopropyl-5-oxo-7-(5-(3-(trifluoromethyl)phenyl)isoxazol-3-yl)-2,3-dihydro-5H-thiazolo[3,2-a]pyridine-3-carboxylic Acid] | 5.09 ± 1.3 µM |  |
| CC(C)(C)c1cc(-c2cc(-c3cc(=O)n4c(c3C3CC3)SCC4C(=O)O)on2)cc(C(C)(C)C)c1 (racemic) [Compound 17k, (±) 8-Cyclopropyl-7-(3-(3,5-di-tert-butylphenyl)isoxazol-5-yl)-5-oxo-2,3-dihydro-5H-thiazolo[3,2-a]pyridine-3-carboxylic Acid] | 3.13 ± 0.16 µM |  |
| O=C(O)C1CSc2c(C3CC3)c(CSc3nnc(Cc4cccc5ccccc45)o3)cc(=O)n21 (racemic) [Compound 8c, (±) 8-Cyclopropyl-7-(((5-(naphthalen-1-ylmethyl)-1,3,4-oxadiazol-2-yl)thio)methyl)-5-oxo-2,3-dihydro-5H-thiazolo[3,2-a]pyridine-3-carboxylic Acid] | > 25 µM |  |
| O=C(O)C1CSc2c(C3CC3)c(-c3cc(-c4ccnc5ccccc45)no3)cc(=O)n21 (racemic) [Compound 17p, (±) 8-Cyclopropyl-5-oxo-7-(3-(quinolin-4-yl)isoxazol-5-yl)-2,3-dihydro-5H-thiazolo[3,2-a]pyridine-3-carboxylic Acid] | 11 ± 1.48 µM |  |
| O=C(O)C1CSc2c(C3CC3)c(-c3cn(-c4ccc5ccccc5c4)nn3)cc(=O)n21 (racemic) [Compound 15c, (±) 8-Cyclopropyl-7-(1-(naphthalen-2-yl)-1H-1,2,3-triazol-4-yl)-5-oxo-2,3-dihydro-5H-thiazolo[3,2-a]pyridine-3-carboxylic Acid] | 7.37 ± 0.83 µM |  |
| O=C(O)C1CSc2c(C3CC3)c(-c3cn(-c4cccc(C(F)(F)F)c4)nn3)cc(=O)n21 (racemic) [Compound 15b, (±) 8-Cyclopropyl-5-oxo-7-(1-(3-(trifluoromethyl)phenyl)-1H-1,2,3-triazol-4-yl)-2,3-dihydro-5H-thiazolo[3,2-a]pyridine-3-carboxylic Acid] | > 25 µM |  |
| O=C(O)C1CSc2c(C3CC3)c(-c3cc(-c4cccc5ccccc45)on3)cc(=O)n21 (racemic) [Compound 19a, (±) 8-Cyclopropyl-7-(5-(naphthalen-1-yl)isoxazol-3-yl)-5-oxo-2,3-dihydro-5H-thiazolo[3,2-a]pyridine-3-carboxylic Acid] | 3.9 ± 1.43 µM |  |
